Experimental data: PubChem BioAssay (NCI)
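1) Cells in 96-well plates. 2) Compound, 48 h, 5 concentrations. 3) Linear interpolation between surrounding doses. 4) Unreached endpoint = highest concentration. TGI marks complete inhibition of growth.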 Where a SMILES comes first, the peptide text is derived from it. [ ]: non-standard residue; d: D form. The star is where a group is joined. Phe(4-NO2) = N[CH](Cc1ccc([N+](=O)[O-])cc1)C(=O)O; Cbz = O=C(OCc1ccccc1)*

Key:
Test in all cases: growth of human tumour cells (NCI), 48 h
[1] = test system: LOX IMVI melanoma
[2] = test system: MDA-MB-435
[3] = test system: OVCAR-5 ovarian
[4] = test system: HCT-116 colon
[5] = test system: NCI/ADR-RES ovarian
[6] = test system: SNB-75 CNS
[7] = test system: CAKI-1 renal
[8] = test system: SNB-19 CNS
[9] = test system: HT29 colon
[10] = test system: PC-3 prostate
[11] = test system: IGROV1 ovarian
[12] = test system: MDA-MB-231 breast
[13] = test system: BT-549 breast
[14] = test system: COLO 205 colon
[15] = test system: HL-60(TB) leukemia
[16] = test system: NCI-H226 lung
[17] = test system: NCI-H23 lung
[18] = test system: SN12C renal
[19] = test system: RXF 393 renal
[20] = test system: UACC-62 melanoma
[21] = test system: UACC-257 melanoma
[22] = test system: SK-MEL-28 melanoma
[23] = test system: ACHN renal
[24] = test system: HCC-2998 colon
[25] = test system: SK-MEL-5 melanoma
[26] = test system: A498 renal
[27] = test system: MCF7 breast
[28] = test system: UO-31 renal
[29] = test system: NCI-H522 lung
[30] = test system: RPMI-8226 leukemia
[31] = test system: OVCAR-3 ovarian
[32] = test system: KM12 colon
[33] = test system: TK-10 renal
[34] = test system: SK-MEL-2 melanoma
[35] = test system: HOP-62 NSCLC
[36] = test system: MOLT-4 leukemia
[37] = test system: K-562 leukemia
[38] = test system: OVCAR-8 ovarian
[39] = test system: OVCAR-4 ovarian
[40] = test system: DU-145 prostate
[41] = test system: HCT-15 colon
[42] = test system: SF-268 CNS
[43] = test system: MDA-N
[44] = test system: 786-0 renal
[45] = test system: U251 CNS
[46] = test system: T-47D breast
[47] = test system: MALME-3M melanoma
[48] = test system: SF-295 CNS
[49] = test system: EKVX NSCLC
[50] = test system: NCI-H460 lung
[51] = test system: HS 578T breast
[52] = test system: SR leukemia
[53] = test system: SW-620 colon
[54] = test system: SF-539 CNS
[55] = test system: A549 NSCLC
[56] = test system: HOP-92 NSCLC
[57] = test system: SK-OV-3 ovarian
[58] = test system: M14 melanoma
[59] = test system: CCRF-CEM leukemia

Measured: TGI

COc1ccc(-n2c(C)nc3ccc(NC4OCC(OC(C)=O)C(OC(C)=O)C4OC(C)=O)cc3c2=O)cc1 (stereo unspecified)
> 100 µM: [1] | [2] | [3] | [4] | [5] | [6] | [7] | [8] | [9] | [10] | [11] | [12] | [13] | [14] | [15] | [16] | [17] | [18] | [19] | [20] | [21] | [22] | [23] | [24] | [25] | [26] | [27] | [28] | [29] | [30] | [31] | [32] | [33] | [34] | [35] | [36] | [37] | [38] | [39] | [40] | [41] | [42] | [43] | [44] | [45] | [46] | [47] | [48] | [49] | [50] | [51] | [52] | [53]

CC1=NN(c2nc(N)nc(CCl)n2)C(C)(C)C1
19.7 µM: [28]
> 52.7 µM: [59]
27 µM: [39]
> 68.7 µM: [18]
> 100 µM: [2] | [8] | [10] | [55] | [16] | [19] | [21] | [27] | [30] | [57] | [33] | [34] | [40] | [43] | [46] | [51]
28.6 µM: [17]
45.7 µM: [56]
> 63.3 µM: [45]
> 58 µM: [14]
85.7 µM: [12]
19.1 µM: [35]
> 78 µM: [3]
3.35 µM: [1]
> 69.5 µM: [37]
> 56 µM: [25]
> 51.8 µM: [31]
> 82.5 µM: [13]
50 µM: [36]
> 74.5 µM: [48]
> 75.4 µM: [58]
31 µM: [23]
9.27 µM: [7]
34 µM: [54]
42.1 µM: [49]
> 60.2 µM: [53]
> 70.1 µM: [4]
> 84.4 µM: [26]
32.5 µM: [20]
20.5 µM: [11]
36.2 µM: [50]
35 µM: [5]
68 µM: [42]
2.94 µM: [29]
66.1 µM: [24]
> 75.8 µM: [22]
> 75.6 µM: [6]
55.9 µM: [41]
> 69.7 µM: [52]
> 55.5 µM: [38]
> 24.9 µM: [15]
51.5 µM: [32]
15.9 µM: [44]
> 92.7 µM: [9]

CCOC(=O)CCC(NC(=O)OCc1ccccc1)C(=O)NC(CCC(=O)OCC)C(=O)NC(CCC(=O)OCC)C(=O)NC(CCC(=O)OCC)C(=O)NC(CCC(=O)OCC)C(=O)NC(Cc1ccc([N+](=O)[O-])cc1)C(=O)NC(CCC(=O)OCC)C(=O)NC(CCC(=O)OCC)C(=O)NC(CCC(=O)OCC)C(=O)NC(CCC(=O)OCC)C(=O)NC(CCC(=O)OCC)C(=O)OCC (stereo unspecified) (Cbz-E(OEt)E(OEt)E(OEt)E(OEt)E(OEt)[Phe(4-NO2)]E(OEt)E(OEt)E(OEt)E(OEt)E(OEt)-OEt; configuration not given here)
> 50 µM: [1] | [54] | [2] | [3] | [5] | [6] | [8] | [9] | [10] | [11] | [13] | [55] | [14] | [15] | [16] | [17] | [18] | [19] | [20] | [22] | [23] | [24] | [25] | [26] | [27] | [28] | [29] | [30] | [57] | [31] | [32] | [33] | [34] | [35] | [36] | [37] | [39] | [40] | [41] | [42] | [43] | [44] | [45] | [46] | [47] | [49] | [50] | [51] | [58] | [59] | [52] | [53]
> 5 µM: [12]

O=C(O)c1cc(-c2ccc3cc(O)c(O)cc3c2)ccc1O
> 12.5 µM: [54] | [2] | [3] | [4] | [5] | [6] | [7] | [8] | [9] | [10] | [11] | [12] | [13] | [55] | [14] | [15] | [16] | [17] | [18] | [20] | [21] | [22] | [23] | [25] | [26] | [27] | [28] | [29] | [57] | [31] | [32] | [33] | [34] | [35] | [36] | [37] | [38] | [40] | [41] | [42] | [43] | [44] | [45] | [46] | [47] | [48] | [50] | [51] | [58] | [59] | [52] | [53]
